The text below walks through data of US11247994B2, “6-dithio-substituted-2′-deoxyguanosine compound, preparation method thereof and use thereof” (ZHEJIANG UNIVERSITY, priority 2018, dated 2022).

pIC50: −log10 of the molar value.

For series [1], the system named is human gastric cancer cells BGC. The series can be described thus: MTT assay, tumor cell growth inhibition, BGC. The format is cell-based. The settings on record: 48 hours. The source says:
(§1) MTT Assay—Inhibitory Effect of 6-dithio-substituted-2′-deoxyguanosine Derivatives on Tumor Cell Growth
(§2) We measured the tumor cell growth inhibitory activity of candidate compounds by MTT assay. Human tumor cells in logarithmic growth phase were digested with 0.25% pancreatin for a certain time, centrifuged, re-suspended and counted with a blood cell counting plate to prepare a cell suspension, and the cell suspension was adjusted to 1.0×10^4-1×10^5 cells/mL. The cell suspension was inoculated into a 96-well culture plate, 100 μL per well, and cultured in an incubator with saturated humidity, 37° C. and 5% CO2 for 24 hours until the cells completely adhered to the wall. The test compound was diluted to the required concentration with a complete medium, the complete medium of the 96-well culture plate inoculated with human tumor cells was sucked out, a medicament-containing medium was added, 100 μL per well, the final concentration of DMSO was less than 0.1%, and the culture plate was put in an incubator for 48 hours. 10 μl of MTT was added to each well of the 96-well plate, and the culture was continued for 4 h. The culture was stopped and the culture solution in the well was carefully sucked off. 150 μL DMSO was added to each well, and shaken at a low speed for 10 min on a shaking table, so that the crystal was fully dissolved. The absorbance of each well was measured at OD 570 nm of an enzyme-linked immunosorbent assay instrument. At the same time, zeroing wells (the culture medium, MTT, dimethyl sulfoxide) and control wells (cells, a drug dissolution medium with the same concentration, a culture solution, MTT, dimethyl sulfoxide) were set up, and the cell growth inhibitory activity was calculated with the corresponding solvents as the control. 3-6 multiple wells in each group were set up with repetition of several times. Cell viability of control=(Adrug group−Azeroing well)/(Acontrol well−Azeroing well)*100%. Drawing was drawn, the data were fitted into a concentration response curve with a variable slope, and IC50 value was calculated from the curve.
A general note: Tetrazolium assays rely on reduction of a dye to a coloured formazan, in cell work by metabolically active cells.

Series [2] can be described thus: Blood biochemical analysis and HE staining of tissues in HCT116 tumor-bearing nude mice. Format: in vivo. The settings on record: tail vein once every two days, 12 times, blood 48 hours after the last treatment. How it is done:
We took human colon cancer cell line HCT116 as the research object, and established a subcutaneous transplanted tumor model of human colon cancer in 32 immunodeficient nude mice. The 24th generation HCT116 cells in logarithmic growth phase were digested with pancreatin to prepare a single-cell suspension, and 1×10^7 cells were inoculated subcutaneously in the right armpit of male nude mice about 5 weeks old. After inoculation, cyclophosphamide (100 mg/kg) was injected intraperitoneally for two consecutive days. […] On the 20th day after colon cancer cell HCT116 was implanted subcutaneously, nude mice were divided into 7 groups by a random number table method, including a test drug group, a positive control group and a blank control group. Specifically, group A: the compound A was administrated; Group B: the compound B was administrated; Group C: the compound C was administrated; Group D: the compound D was administrated; Group E: the compound 6-thio-DG was administrated; Group F: the compound PX-12 was administrated; Group G: blank group, without administration of any compound. Except group C with 3 rats and group G with 4 rats, all other 5 groups had 5 rats, they mice were labeled and injected by tail vein once every two days for 24 days, 12 times, with the dose of compound A being 2 mg/kg for the first 8 times and 10 mg/kg for the last 4 times, and the dosages of other drugs being the same molar weights. The tumor volume was calculated by taking the length of the tumor as the longest diameter and the width as the corresponding vertical diameter, and the tumor volume V=(length×width^2) mm^3/2. 48 hours after the last treatment, blood was taken from the eyes, and then the animals were killed. Blood was centrifuged to get the supernatant, and then blood biochemical analysis was performed. Paraffin embedded sections of fixed tissues were stained with HE. The tumor mass in a frozen tissue was sectioned in a frozen state, and then stained by DAPI and TUNEL to judge the apoptosis of the tumor tissue in nude mice.

For series [3], the system named is human breast cancer cells MCF7. The series is described as follows: MTT assay, tumor cell growth inhibition, MCF7. Format: cell-based. As to conditions: 48 hours.
From the text: as §1, §2

The subject of series [4] is human melanoma cell A375 tumor. The series can be described thus: Human melanoma cell A375 tumor-bearing mouse model, antitumor effect. The format is in vivo, nude mice. The settings on record: compound D 10 mg/kg, DTIC 20.4 mg/kg (4 times molar), 6-thio-dG+PX12 at twice the molar amount. How it is done: 2) Human Melanoma Cell A375 Tumor-Bearing Mouse Model
We further studied the inhibitory effect of the compound D on human malignant melanoma by using A375 tumor-bearing mouse model. The method was basically the same as above. Dacarbazine (DTIC) is the first-line drug for melanoma. The designed administration groups were: compound D 10 mg/kg group; 6-thio-dG+PX12 combined drug group (the dose is equivalent to twice the molar amount of the compound D); DTIC 20.4 mg/kg group (the dose is equivalent to 4 times the molar amount of the compound D) and blank solvent group.

Series [5] concerns human breast cancer cells Bcap37. The series is described as follows: MTT assay, tumor cell growth inhibition, Bcap37. The settings on record: 48 hours. The format is cell-based.
From the text: as §1, §2

For the compound `CC(C)SSc1nc(N)nc2c1ncn2[C@H]1C[C@H](O)[C@@H](CO)O1` [D, 6-(isopropyldithio)-2′-deoxyguanosine], the pIC50 – broadly, the IC50 on a negative log10 scale, so that one unit is a factor of ten – in series [1] is 4.93. Moreover, in series [2], the Alanine aminotransferase was 28.2 U/L, the Albumin came out at 25.0 g/L, the Alkaline phosphatase amounted to 31.5 U/L and the Aspartate aminotransferase amounted to 122.2 U/L. In series [2], this compound came in with a BUN of 8.80 mmol/L, a Chloride ion of 115.3 mmol/L, a Creatine kinase of 1597 U/L and a Creatinine of -3.0 µmol/L. In series [2], the Glucose came out at 3.51 mmol/L, the Potassium ion is listed as 6.43 mmol/L, the Sodium ion came out at 157.5 mmol/L and the Total bilirubin was -1.00 µmol/L. Moreover, in series [2], the Total cholesterol came out at 3.21 mmol/L, the Total protein is listed as 54.2 g/L and the Triglyceride is 0.70 mmol/L. The same compound had a negative-log IC50 (pIC50) in series [3] of 4.38. Moreover, the “Antitumor effect (tumor volume) compared with controls” value in series [4] was “significantly higher than that of DITC”. Besides, the pIC50 in series [5] is 4.64.
